One experiment addresses T1, hCaSR (Homo sapiens, UniProt P41180).
T1 construct: expressed in transfected cells; host or cells: HEK293/natClytin (transient, pcDNA6 as delivered by GeneArt)
T1 sequence (P41180 20-1078): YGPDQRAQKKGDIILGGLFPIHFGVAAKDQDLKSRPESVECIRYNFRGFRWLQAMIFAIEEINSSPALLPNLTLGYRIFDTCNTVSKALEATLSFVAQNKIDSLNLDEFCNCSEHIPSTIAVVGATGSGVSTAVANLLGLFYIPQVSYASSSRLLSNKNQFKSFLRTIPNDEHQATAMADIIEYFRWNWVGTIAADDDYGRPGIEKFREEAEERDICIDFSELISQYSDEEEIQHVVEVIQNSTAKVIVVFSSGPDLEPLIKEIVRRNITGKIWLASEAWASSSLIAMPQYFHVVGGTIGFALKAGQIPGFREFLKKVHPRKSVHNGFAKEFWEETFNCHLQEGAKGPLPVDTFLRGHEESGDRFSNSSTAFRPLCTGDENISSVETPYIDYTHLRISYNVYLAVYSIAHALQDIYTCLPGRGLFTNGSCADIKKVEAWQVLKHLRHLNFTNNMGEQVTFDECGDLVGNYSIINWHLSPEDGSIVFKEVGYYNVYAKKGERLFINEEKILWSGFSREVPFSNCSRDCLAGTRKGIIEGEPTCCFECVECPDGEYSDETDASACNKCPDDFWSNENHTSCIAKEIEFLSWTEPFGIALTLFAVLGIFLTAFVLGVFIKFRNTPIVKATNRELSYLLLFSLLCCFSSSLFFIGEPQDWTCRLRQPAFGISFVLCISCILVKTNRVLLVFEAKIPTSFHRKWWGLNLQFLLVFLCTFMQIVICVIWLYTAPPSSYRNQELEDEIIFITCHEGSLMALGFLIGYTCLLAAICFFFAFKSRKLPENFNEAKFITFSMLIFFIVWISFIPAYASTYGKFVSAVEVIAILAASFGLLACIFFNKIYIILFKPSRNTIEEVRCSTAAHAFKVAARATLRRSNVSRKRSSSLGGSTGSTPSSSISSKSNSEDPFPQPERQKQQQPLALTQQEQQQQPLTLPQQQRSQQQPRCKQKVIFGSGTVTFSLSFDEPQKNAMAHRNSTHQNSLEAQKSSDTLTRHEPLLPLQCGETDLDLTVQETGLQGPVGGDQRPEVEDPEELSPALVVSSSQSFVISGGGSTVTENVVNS
Kind of experiment: hCaSR transiently expressed in HEK293/natClytin, agonist luminescence assay. The class given is cell-based. The protocol: (§1) The coding sequence of the Felis catus[52] and Homo sapiens[53] CaSR gene was synthesised by GeneArt (Thermo Fisher Scientific). The cat coding sequence was excised from the GeneArt construct and inserted in pcDNA3.1 for constitutive and transient expression or pcDNA5/ TO for inducible expression. For the human sequence the pcDNA6 vector as delivered by GeneArt was used without further sub-cloning.
(§2) All transient transfections were performed with Lipofectamine 2000 (Invitrogen) according to the manufacturer’s protocol.

Experiment [1] addresses T2, cCaSR (Felis catus, UniProt C7FF08).
T2 sequence (C7FF08 1-1081): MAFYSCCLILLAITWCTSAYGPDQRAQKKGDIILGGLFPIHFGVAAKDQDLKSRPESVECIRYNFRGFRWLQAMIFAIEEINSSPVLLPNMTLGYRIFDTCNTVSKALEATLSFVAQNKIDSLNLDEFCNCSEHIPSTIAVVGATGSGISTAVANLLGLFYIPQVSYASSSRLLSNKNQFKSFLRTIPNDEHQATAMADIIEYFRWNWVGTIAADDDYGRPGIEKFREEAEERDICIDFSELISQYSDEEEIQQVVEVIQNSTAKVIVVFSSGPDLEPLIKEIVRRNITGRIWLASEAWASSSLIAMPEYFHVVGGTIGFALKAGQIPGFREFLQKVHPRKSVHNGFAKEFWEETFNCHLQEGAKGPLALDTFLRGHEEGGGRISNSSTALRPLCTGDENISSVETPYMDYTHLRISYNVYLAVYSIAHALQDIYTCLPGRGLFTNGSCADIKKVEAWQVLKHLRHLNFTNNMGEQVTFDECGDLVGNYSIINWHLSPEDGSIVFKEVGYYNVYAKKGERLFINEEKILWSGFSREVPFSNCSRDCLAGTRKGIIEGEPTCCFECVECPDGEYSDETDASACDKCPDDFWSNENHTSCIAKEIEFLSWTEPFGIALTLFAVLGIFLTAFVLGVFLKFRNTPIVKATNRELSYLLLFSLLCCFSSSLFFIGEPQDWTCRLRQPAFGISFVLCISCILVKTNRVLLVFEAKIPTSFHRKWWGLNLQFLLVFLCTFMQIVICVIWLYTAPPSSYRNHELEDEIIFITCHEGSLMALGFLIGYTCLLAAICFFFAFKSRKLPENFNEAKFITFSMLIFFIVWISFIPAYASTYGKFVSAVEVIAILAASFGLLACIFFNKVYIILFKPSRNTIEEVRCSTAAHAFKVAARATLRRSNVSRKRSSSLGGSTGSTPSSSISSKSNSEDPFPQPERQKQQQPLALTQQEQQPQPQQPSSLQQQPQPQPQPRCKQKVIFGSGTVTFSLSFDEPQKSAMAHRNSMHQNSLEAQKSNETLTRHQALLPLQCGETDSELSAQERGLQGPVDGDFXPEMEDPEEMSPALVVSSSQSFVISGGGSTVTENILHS
Kind of experiment: cCaSR transiently expressed in HEK293/natClytin, agonist luminescence assay. The format is cell-based. The method, then:
as §1, §2

Experiment [2] deals with T2, cCaSR.
Protocol: (§3) The cCaSR expression constructs were stably-transfected in the mammalian cell line, HEK293/ T-REx/ natClytin. Transfections were performed by electroporation, following standard methodologies. Stably-transfected target and mock pools were obtained after 2–3 weeks of antibiotic selection, and clones were selected for testing. In order to evaluate the activity of each clone, 10 mM Calcium was injected onto the cells and the resulting luminescence was measured.
(§4) All compounds screened on the receptor were analysed in parallel with Calcium, on the HEK293/ T-REx/ natClytin-cCaSR or hCaSR stable or transient cell lines. Prior to the measurements, the cells were incubated with 10 µM of photoprotein substrate, Coelenterazine, prepared in Calcium-free Tyrode’s buffer at 37 °C for 3–4 h. All the data was captured using a FLIPR Tetra (Molecular Devices). A single or double injection protocol was used to capture the data for potential agonists and PAMs, respectively. The compounds tested were all prepared at desired concentration in Calcium-Free Tyrode’s buffer supplemented with 0.5% DMSO. For the activity determination of potential agonists, the single injection protocol was used, with CaCl2 as the positive control for each run. Each compound was injected into specific wells and the luminescence signal was measured for 1 min. for each compound. For potential PAMs, the double injection protocol was used. The first injection was identical to the one described above for potential agonists. A 20 min. resting period followed the first injection and a second injection of 0.5 mM CaCl2 in Calcium-free Tyrode’s buffer was injected to all wells, and the resulting luminescence signal was again measured for 1 min for each compound.
(§5) Dose–response curves were established by plotting signal amplitudes versus agonist concentration. For each compound, the % of maximum response was determined using a standard formula as follows:
(§6) The half maximal effective concentrations (EC50) were identified by nonlinear regression using a variable slope model with the equation Y = Bottom + (X^Hillslope)*(Top–Bottom)/ (X^HillSlope + EC50^HillSlope), where Y is the agonist concentration, Top and Bottom are the plateaus in the same units as Y and HillSlope is the Slope factor or Hill slope. […] In these cases the EC50 was noted as being higher than the maximum concentration used in the assay.
Experiment [3] concerns the target T2, cCaSR. Kind of experiment: cell-based.
Protocol: as §3, §4, §5, §6
Experiment [4] has as its system cCaSR. The note with it: for EC50 Ago (M): Supplementary Table I, dash = no activity.
Protocol: as §3, §4, §5, §6
For experiment [5], the system named is cCaSR. As to the kind of experiment: cCaSR PAM luminescence assay, double injection with 0.5 mM CaCl2, HEK293/T-REx/natClytin-cCaSR. The note with it: Supplementary Table I, PAM assay, dash = no activity.
Experiment [6] concerns the target T2, cCaSR. The description is as above. The settings on record: Supplementary Table I, PAM assay, dash = no activity.
Experiment [7] deals with cCaSR. Kind of experiment: cCaSR transiently expressed in HEK293/natClytin, agonist luminescence assay. The class given is cell-based, Felis catus. The note with it: transiently expressed cCaSR; > 3 mM = maximal response not reached. The protocol: as §1, §2
The target of experiment [8] is domestic cat Calcium Sensing Receptor (cCaSR) (Felis catus).
Experiment [9] has the same target. The source holds these as a separate data set.
Where [10] appears, read: transiently expressed hCaSR, > 3 mM = maximal response not reached, read-out: hCaSR EC50.
[11] abbreviates: transiently expressed cCaSR, > 3 mM = maximal response not reached, read-out: cCaSR EC50.
[12] abbreviates: cCaSR stable EC50(mM), stably expressed cCaSR, Fig. 6b, > 3 mM = maximal response not reached.
The mark [13] stands for this setting: EC50 (M), agonist assay, stable inducible cCaSR line, > 0.01 M = maximal response not reached.
Where [14] appears, read: EC50 Ago (M), Supplementary Table I, agonist assay, > 0.01 M = maximal response not reached.
[15] abbreviates: cCaSR activity, agonist assay, stable inducible cCaSR line, at least three wells.

Read-outs that look alike come from different tables or passages of the source. A value given as a limit tells only on which side of the number the result lay.

From paper PMC8131363 (Scientific Reports, 2021) come the findings set out here.

`NC[C@H]1O[C@H](O[C@H]2[C@H](O)[C@@H](O[C@H]3O[C@H](CO)[C@@H](O)[C@H](N)[C@H]3O)[C@H](N)C[C@@H]2N)[C@H](N)C[C@@H]1O` [Tobramycin, reference compound]: the EC50 at hCaSR (setting [10]) was 160 µM; at cCaSR [1] (setting [11]) it was 280 µM; at cCaSR [3] (setting [12]), 0.04 mM. Besides, the “EC50 Ago (M)” value on cCaSR [2] (Supplementary Table I, agonist assay, dash = no activity) is on record as “-”.
On to `CNc1ccc2oc(C[C@@H]3OC4(CC[C@@H]3C)O[C@H](C(C)C(=O)c3ccc[nH]3)[C@H](C)C[C@H]4C)nc2c1C(=O)O` (stereo partly shown) [Calcium Ionophore, reference compound], for which the “EC50 Ago (M)” value in the experiment on cCaSR [4] (agonist assay) was “-”. The “EC50 PAM (M)” value in the experiment with cCaSR [5] is “-”.
With `NCCCCNCCCN` [Spermidine], the EC50 on hCaSR is 1300 µM; at cCaSR [1], 1100 µM; at cCaSR [3] (setting [13]), 2.49 mM; on cCaSR [3] (setting [14]), 2.5 mM; at cCaSR [3] (setting [15]), 1 to 10 mM; on cCaSR [3] (setting [12]), 2.3 mM. For the same molecule, at cCaSR [2], the “agonist activity on cCaSR (in words)” value is given as “agonists”. Moreover, the “EC50 PAM (M)” value on cCaSR [6] is “-”.
As to `CN[C@@H]1[C@@H](O)[C@@H](O[C@@H]2[C@@H](O)[C@H](O[C@H]3O[C@H]([C@@H](C)O)[C@@H](O)[C@H](O)[C@H]3N)[C@@H](N)C[C@H]2N)OC[C@]1(C)O` [Geneticin, reference compound], the EC50 at hCaSR (setting [10]) is 3600 µM; in the experiment with cCaSR [7], 3000 µM; with cCaSR [4] (read-out: cCaSR activity, agonist assay, stable inducible cCaSR line, at least three wells) it was greater than 10000 µM; in the experiment on cCaSR [4] (read-out: cCaSR stable EC50, […], > 3 mM = maximal response not reached), 1100 µM. Besides, the “EC50 Ago (M)” value in the experiment on cCaSR [4] (agonist assay) was “-”. Moreover, the “EC50 PAM (M)” value in the experiment with cCaSR [5] is listed as “-”.
As for `N[C@@H](CCC(=O)O)C(=O)O` [L-Glutamic acid], the EC50 at hCaSR (setting [10]) was greater than 3000 µM; on cCaSR [1] (setting [11]) it was greater than 3000 µM; at cCaSR [3] (setting [14]) it was 9.16 mM; at cCaSR [3] (EC50 Value (heat map Fig. 5), cCaSR agonists, heat map), 9.03 mM; on cCaSR [3] (setting [15]) it was greater than 10 mM; on cCaSR [3] (cCaSR stable EC50(mM), […], > 3 mM = maximal response not reached), greater than 3 mM. Further, the “agonist activity on cCaSR (in words)” value on cCaSR [2] is listed as “strong agonist activity”. The “EC50 PAM (M)” value on cCaSR [6] is recorded as “-”.
With Poly-L-arginine (peptide), the EC50 of agonist activity, luminescence (natClytin) in HEK T-Rex/natClytin cells inducibly expressing cCaSR, calcium-free buffer; activity grade +++ in experiment [8] was determined as 1.01 µM. In addition, the EC50 for cCaSR (stably and transiently expressed) against the EC50 for hCaSR, luminescence dose response in HEK293/natClytin cells in experiment [9] was found to be 2.5 fold.
With `N[C@@H](CC(=O)O)C(=O)O` [L-Aspartic acid], the EC50 is 11900 µM at hCaSR (setting [10]); 11800 µM at cCaSR [1] (setting [11]); 4.11 mM on cCaSR [3] (setting [13]); 4.11 mM at cCaSR [3] (setting [14]); 1 to 10 mM on cCaSR [3] (setting [15]). Further, the “agonist activity on cCaSR (in words)” value at cCaSR [2] is given as “strong agonist activity”. For the same molecule, the “EC50 PAM (M)” value on cCaSR [6] is “-”.
